The values that follow come from US20070270436A1, “NOVEL AMINO- AND IMINO-ALKYLPIPERAZINES” (Recordati Ireland Limited, priority 2006, published 2007).

Like-named read-outs stand apart in the source and are kept apart here.

Assay [1] concerns rhythmic bladder-voiding contractions. Put plainly: Rhythmic bladder-voiding contractions induced by bladder filling in anaesthetised rats. Conditions: for ED50: Rattus norvegicus. Format: in vivo, rat. How it is done:
Female Sprague-Dawley rats weighing 225-275 g (Crl: CD® (SD) IGS BR, Charles River Italia) were used. The animals were housed with free access to food and water and maintained on a forced 12-hour alternating light-dark cycle at 22-24° C. for at least one week, except during the experiment. The activity on rhythmic bladder voiding contractions was evaluated according to the method of Dray (Dray J., Pharmacol. Methods, 13:157, 1985), with some modifications as in Guarneri (Guarneri, Pharmacol. Res. 27:173, 1993). Briefly, the rats were anaesthetised by subcutaneous injection of 1.25 g/kg (5 ml/kg) urethane, after which the urinary bladder was catheterised via the urethra using PE 50 polyethylene tubing filled with physiological saline. The catheter was tied in place with a ligature around the external urethral orifice and was connected to conventional pressure transducers (Statham P23 ID/P23 XL). […] The bladder was then filled via the recording catheter by incremental volumes of warm (37° C.) saline until reflex bladder-voiding contractions occurred (usually 0.8-1.5 ml). For intravenous injection of bioactive compounds, PE 50 polyethylene tubing filled with physiological saline was inserted into the jugular vein.
From the cystometrogram, the number of contractions recorded 15 minutes before (basal values) and after treatment, as well as the mean amplitude of these contractions (mean height of the peaks in mmHg), was evaluated.
Since most compounds produced an effect that was relatively rapid in onset and led to a complete cessation of bladder contractions, bioactivity was conveniently estimated by measuring the duration of bladder quiescence (i.e., the time during which no contractions occurred). The number of tested animals showing a reduction in the number of contractions higher than 30% of that observed in the basal period was recorded too.
The extrapolated doses which induced a reduction in the number of contractions greater than 30% in 50% of the treated rats (ED50) were also evaluated by the method of Bliss (Bliss C. I., Quart J. Pharm. Pharmacol. 11, 192-216, 1938).

A further assay relates to urinary bladder. Nature of the assay: Cystometric parameters in conscious rats after oral administration. Format: in vivo, rat. As to conditions: 3 mg/kg p.o., 1-5 h after treatment. How it is done:
Male Sprague-Dawley rats [Crl: CD® (SD) IGS BR] of 300-400 g body weight supplied by Charles River Italia were used. The animals were housed with free access to food and water and maintained on a forced 12-hour-light/12-hour-dark cycle at 22-24° C. of temperature, except during the experiment. To quantify urodynamic parameters in conscious rats, cystometrographic studies were performed according to the procedure previously reported (Guarneri et al., Pharmacol. Res. 24: 175, 1991).
Briefly, the rats were anaesthetised by intraperitoneal administration of 3 ml/kg of Equithensin solution (pentobarbital 30 mg/kg and chloral hydrate 125 mg/kg) and placed in a supine position. An approximately 10 mm-long midline incision was made in the shaved and cleaned abdominal wall. The urinary bladder was gently freed from adhering tissues, emptied and then cannulated via an incision in the bladder body, using a polyethylene cannula (0.58-mm internal diameter, 0.96-mm external diameter) which was permanently sutured with silk thread. The cannula was exteriorised through a subcutaneous tunnel in the retroscapular area, where it was connected to a plastic adapter in order to avoid the risk of removal by the animal. For drug testing, the rats were utilised one day after implantation.
On the day of the experiment, the rats were placed in modified Bollman cages, i.e., restraining cages that were large enough to permit the rats to adopt a normal crouched posture, but narrow enough to prevent turning around. After a stabilisation period of about 20 minutes, the free tip of the bladder cannula was connected through a T-shaped tube to a pressure transducer (Statham P23XL) and to a peristaltic pump (Gilson minipuls 2) for continues infusion of a warm (37° C.) saline solution into the urinary bladder, at a constant rate of 0.1 ml/minute. The intraluminal-pressure signal during infusion of saline into the bladder was continuously recorded on a polygraph (Rectigraph-8K San-ei with BM614/2 amplifier from Biomedica Mangoni). The cystometrogram was used to evaluate the urodynamic parameters of bladder volume capacity (BVC) and micturition pressure (MP). BVC (ml) is defined as the volume of saline infused into the bladder necessary to induce detrusor contraction followed by micturition. MP (mmHg) is defined as the maximal intravesical pressure caused by contraction during micturition. Basal BVC and MP values were evaluated as mean of the values observed in the cystometrograms recorded in an initial period of 30-60 minutes. Following determination of basal BVC and MP, the infusion was interrupted and the test compounds were administered orally by a stomach tube. Bladder infusion was resumed and changes in BVC and MP were evaluated from the mean values obtained in the cystometrograms observed during 1, 2, 3, 4 and 5 hours after treatment. Compounds were administered in a volume of 2 ml/kg and groups of control animals received the same amount of vehicle (0.5% methocel in water) orally.
Data were expressed as mean ±standard error. The percent changes of BVC and MP versus the basal values, as well as Δ values (difference in ml or mmHg) of BVC and MP (BVC or MP at time “x” minus basal value), were also evaluated for each rat/time. In the figures, data were reported as % changes versus basal values.
Statistical analysis on BVC and MP values, as well as on Δ values, was performed by S.A.S./STAT software, version 6.12. The observed differences between vehicle (control) and test treatments were evaluated on Δ values of BVC and MP, whereas the differences between the values at different times versus basal values were analyzed on original BVC and MP data.

Assay [2] relates to release of glutamate and acetylcholine. As to conditions: dentate gyrus of the hippocampus; cited from earlier work.
Another assay relates to aged rhesus monkeys. As to conditions: 1 mg/kg p.o.; cited from earlier work.
For assay [3], the system named is 5-HT1A agonist discriminative stimulus cue. Conditions: 0.01-1 mg/kg i.m.; cited from earlier work.
The next assay relates to marmosets. Conditions: 2 mg/kg i.m., visual spatial discrimination; cited from earlier work.
Another assay concerns primates. Conditions: cited from earlier work.

A word on the ED50: it is the dose at which the effect has come halfway, by size or by number of responders.

Take `CCN(CC)CC#CCOC(=O)C(O)(c1ccccc1)C1CCCCC1` (stereo not drawn) [Oxybutynin, oxybutynin]: the 50% effective dose (ED50) is 0.24 mg/kg in assay [1] (intravenous administration, n.a. = not active, no significant reduction of the height of the peaks, read-out: ED50 (amplitude) (extrapolated dose inducing a 30% reduction of amplitude of the contractions in 50% of treated rats)) and above 10 mg/kg in assay [1] (intravenous administration, read-out: ED50 (frequency) (extrapolated dose inducing a reduction of the number of contractions >30% in 50% of treated rats)). The “frequency of bladder contractions” value in assay [1] (at 240 μg/kg) is “did not lower the frequency”. Besides, the “ED10 min (extrapolated dose inducing 10 minutes of disappearance of the contractions)” value in assay [1] (intravenous administration) is 7.77 mg/kg. For the same compound, the “bladder volume capacity (BVC)” value in the assay with urinary bladder was “slight, not-significant increase”. The “micturition pressure (MP)” value in the assay with urinary bladder is recorded as “greatly reduced”.

Consider `C[C@H](CN(C(=O)c1ccc(C#N)cc1)c1ccccn1)N1CCN(c2cccc3c2OCCO3)CC1` [lecozotan], for which, in assay [2], the “potassium chloride-stimulated release of glutamate and acetylcholine” value is listed as “significantly potentiated”. Moreover, the task performance efficiency entry with aged rhesus monkeys is “significant improvement”. Besides, in assay [3], the “blockade of the 5-HT1A agonist discriminative stimulus cue” value is “dose-related blockade” and the “substitution for 8-OH-DPAT” value was “did not substitute”. The “learning deficits induced by MK-801 and by cholinergic lesions of the hippocampus” value in the assay with marmosets was “reversed”.

Turning to `COc1ccccc1N1CCN(CCN(C(=O)C2CCCCC2)c2ccccn2)CC1` [WAY-100635], the “cognitive deficits induced by glutamatergic and cholinergic dysfunction” value in the assay on primates is “can alleviate”.
